Experimental data reported in EP2815749A1, “Solid form of 4-amino-2-(2,6-dioxopiperidine-3-yl)isoindoline-1,3-dione having specified X-ray diffraction pattern” (IP Gesellschaft für Management mbH, priority 2013, dated 2014).
Converted amounts (≈) assume the structure as drawn. Like-named read-outs stand apart in the source and are kept apart here.

Assay: Approximate solubility of pomalidomide at 50°C in 96 solvent compositions (LC)
Format: physicochemical
Details: 50 °C, organic solvent or mixture, thermodynamic from solid
Description: Pomalidomide Solid Form Preparations: Preparation of solid form of pomalidomide was conducted by equilibrating pomalidomide in 96 solvent compositions at 50°C and subjected to four conditions: slurry, evaporation, cooling, and precipitation. […] Solvents were then added, as binary gradients consisting of main solvent and co-solvent, to give a total of 150 µl, in each of the 96 vials (see Table 6 for the exact composition of each vial). […] For each of the evaporation, precipitation, and cooling experiments, approximately 8 mg of a solid sample of pomalidomide (e.g., Form A) was delivered to each position of the plate. Solvents were added to the master plate, as binary gradients consisting of main solvent and co-solvent, to give a total volume of 800 µT in each of the 96 vials (see Table 7 for the exact composition of each vial). The master plate, containing pomalidomide and solvents, was then equilibrated by stirring for 2 hours at 50°C. Upon completion of the equilibration cycle, the supernatant was aspirated into a four-tipped needle assembly and transferred to a sealed parallel filtration assembly. The mixtures were forced through the filtration assembly using positive pressure and the filtrates were collected in an array of glass vials. The filtered solutions were subsequently aspirated into the four-tipped assembly and aliquots were dispensed to an array of glass vials for subsequent LC analysis to determine approximate concentrations of pomalidomide in each solvent composition at the beginning of the experiments (Table 8). Both the four-tipped needle assembly and filtration assembly were maintained at the equilibration temperature of 50°C throughout the entire transfer process.
The results correspond to the solvent systems described in Table 7, equilibrated at 50°C for 2 hours. […] The approximate concentrations were determined by LC.

In the case of `Nc1cccc2c1C(=O)N(C1CCC(=O)NC1=O)C2=O` (centres unmarked) [Pomalidomide, 4-amino-2-(2,6-dioxopiperidine-3-yl)isoindoline-1,3-dione], the solubility at 2 h (binary solvent composition (main solvent and co-solvent), solvent system A4 of Table 7, read-out: Approximate Measured Solubility) was 1440 µg/mL (≈ 5270 µM), the solubility at 2 h (binary solvent composition (main solvent and co-solvent), solvent system A5 of Table 7, read-out: Approximate Measured Solubility) was 800 µg/mL (≈ 2930 µM) and the solubility at 2 h (binary solvent composition (main solvent and co-solvent), solvent system A6 of Table 7, read-out: Approximate Measured Solubility) was 280 µg/mL (≈ 1020 µM). For the same compound, the solubility at 2 h (binary solvent composition (main solvent and co-solvent), solvent system A7 of Table 7, read-out: Approximate Measured Solubility) was 6980 µg/mL (≈ 25500 µM), the solubility at 2 h (binary solvent composition (main solvent and co-solvent), solvent system A8 of Table 7, read-out: Approximate Measured Solubility) was 7940 µg/mL (≈ 29100 µM) and the solubility at 2 h (binary solvent composition (main solvent and co-solvent), solvent system A9 of Table 7, read-out: Approximate Measured Solubility) was 4410 µg/mL (≈ 16100 µM). The solubility at 2 h (binary solvent composition (main solvent and co-solvent), solvent system B1 of Table 7, read-out: Approximate Measured Solubility) was 230 µg/mL (≈ 842 µM), the solubility at 2 h (binary solvent composition (main solvent and co-solvent), solvent system B2 of Table 7, read-out: Approximate Measured Solubility) was 790 µg/mL (≈ 2890 µM) and the solubility at 2 h (binary solvent composition (main solvent and co-solvent), solvent system B3 of Table 7, read-out: Approximate Measured Solubility) was 1030 µg/mL (≈ 3770 µM). It also gave a solubility at 2 h (binary solvent composition (main solvent and co-solvent), solvent system B4 of Table 7, read-out: Approximate Measured Solubility) of 220 µg/mL (≈ 805 µM), a solubility at 2 h (binary solvent composition (main solvent and co-solvent), solvent system B5 of Table 7, read-out: Approximate Measured Solubility) of 360 µg/mL (≈ 1320 µM) and a solubility at 2 h (binary solvent composition (main solvent and co-solvent), solvent system B6 of Table 7, read-out: Approximate Measured Solubility) of 150 µg/mL (≈ 549 µM). The solubility at 2 h (binary solvent composition (main solvent and co-solvent), solvent system B7 of Table 7, read-out: Approximate Measured Solubility) was 3160 µg/mL (≈ 11600 µM), the solubility at 2 h (binary solvent composition (main solvent and co-solvent), solvent system B8 of Table 7, read-out: Approximate Measured Solubility) was 1720 µg/mL (≈ 6290 µM) and the solubility at 2 h (binary solvent composition (main solvent and co-solvent), solvent system B9 of Table 7, read-out: Approximate Measured Solubility) was 920 µg/mL (≈ 3370 µM). The solubility at 2 h (binary solvent composition (main solvent and co-solvent), solvent system B10 of Table 7, read-out: Approximate Measured Solubility) was 480 µg/mL (≈ 1760 µM), the solubility at 2 h (binary solvent composition (main solvent and co-solvent), solvent system B11 of Table 7, read-out: Approximate Measured Solubility) was 180 µg/mL (≈ 659 µM) and the solubility at 2 h (binary solvent composition (main solvent and co-solvent), solvent system C1 of Table 7, read-out: Approximate Measured Solubility) was 620 µg/mL (≈ 2270 µM). It also gave a solubility at 2 h (binary solvent composition (main solvent and co-solvent), solvent system C2 of Table 7, read-out: Approximate Measured Solubility) of 1410 µg/mL (≈ 5160 µM), a solubility at 2 h (binary solvent composition (main solvent and co-solvent), solvent system C3 of Table 7, read-out: Approximate Measured Solubility) of 1670 µg/mL (≈ 6110 µM) and a solubility at 2 h (binary solvent composition (main solvent and co-solvent), solvent system C4 of Table 7, read-out: Approximate Measured Solubility) of 480 µg/mL (≈ 1760 µM). It also gave a solubility at 2 h (binary solvent composition (main solvent and co-solvent), solvent system C5 of Table 7, read-out: Approximate Measured Solubility) of 470 µg/mL (≈ 1720 µM), a solubility at 2 h (binary solvent composition (main solvent and co-solvent), solvent system C6 of Table 7, read-out: Approximate Measured Solubility) of 260 µg/mL (≈ 952 µM) and a solubility at 2 h (binary solvent composition (main solvent and co-solvent), solvent system C7 of Table 7, read-out: Approximate Measured Solubility) of 3710 µg/mL (≈ 13600 µM). The solubility at 2 h (binary solvent composition (main solvent and co-solvent), solvent system C8 of Table 7, read-out: Approximate Measured Solubility) was 2970 µg/mL (≈ 10900 µM), the solubility at 2 h (binary solvent composition (main solvent and co-solvent), solvent system C9 of Table 7, read-out: Approximate Measured Solubility) was 1840 µg/mL (≈ 6730 µM) and the solubility at 2 h (binary solvent composition (main solvent and co-solvent), solvent system C10 of Table 7, read-out: Approximate Measured Solubility) was 1090 µg/mL (≈ 3990 µM). For the same compound, the solubility at 2 h (binary solvent composition (main solvent and co-solvent), solvent system C11 of Table 7, read-out: Approximate Measured Solubility) was 490 µg/mL (≈ 1790 µM), the solubility at 2 h (binary solvent composition (main solvent and co-solvent), solvent system C12 of Table 7, read-out: Approximate Measured Solubility) was 340 µg/mL (≈ 1240 µM) and the solubility at 2 h (binary solvent composition (main solvent and co-solvent), solvent system D1 of Table 7, read-out: Approximate Measured Solubility) was 1530 µg/mL (≈ 5600 µM). For the same compound, the solubility at 2 h (binary solvent composition (main solvent and co-solvent), solvent system D2 of Table 7, read-out: Approximate Measured Solubility) was 670 µg/mL (≈ 2450 µM), the solubility at 2 h (binary solvent composition (main solvent and co-solvent), solvent system D3 of Table 7, read-out: Approximate Measured Solubility) was 3460 µg/mL (≈ 12700 µM) and the solubility at 2 h (binary solvent composition (main solvent and co-solvent), solvent system D4 of Table 7, read-out: Approximate Measured Solubility) was 2500 µg/mL (≈ 9150 µM). For the same compound, the solubility at 2 h (binary solvent composition (main solvent and co-solvent), solvent system D5 of Table 7, read-out: Approximate Measured Solubility) was 1940 µg/mL (≈ 7100 µM), the solubility at 2 h (binary solvent composition (main solvent and co-solvent), solvent system D6 of Table 7, read-out: Approximate Measured Solubility) was 490 µg/mL (≈ 1790 µM) and the solubility at 2 h (binary solvent composition (main solvent and co-solvent), solvent system D7 of Table 7, read-out: Approximate Measured Solubility) was 3700 µg/mL (≈ 13500 µM). The solubility at 2 h (binary solvent composition (main solvent and co-solvent), solvent system D8 of Table 7, read-out: Approximate Measured Solubility) was 2310 µg/mL (≈ 8450 µM), the solubility at 2 h (binary solvent composition (main solvent and co-solvent), solvent system D10 of Table 7, read-out: Approximate Measured Solubility) was 560 µg/mL (≈ 2050 µM) and the solubility at 2 h (binary solvent composition (main solvent and co-solvent), solvent system D11 of Table 7, read-out: Approximate Measured Solubility) was 1160 µg/mL (≈ 4250 µM). For the same compound, the solubility at 2 h (binary solvent composition (main solvent and co-solvent), solvent system D12 of Table 7, read-out: Approximate Measured Solubility) was 670 µg/mL (≈ 2450 µM), the solubility at 2 h (binary solvent mixture (main solvent and co-solvent), solvent system D9 of Table 7, read-out: Approximate Measured Solubility) was 1630 µg/mL (≈ 5970 µM) and the solubility at 2 h (binary solvent mixture (main solvent and co-solvent), solvent system E1 of Table 7, read-out: Approximate Measured Solubility) was 1600 µg/mL (≈ 5860 µM). It also gave a solubility at 2 h (binary solvent mixture (main solvent and co-solvent), solvent system E2 of Table 7, read-out: Approximate Measured Solubility) of 690 µg/mL (≈ 2530 µM), a solubility at 2 h (binary solvent mixture (main solvent and co-solvent), solvent system E3 of Table 7, read-out: Approximate Measured Solubility) of 320 µg/mL (≈ 1170 µM) and a solubility at 2 h (binary solvent mixture (main solvent and co-solvent), solvent system E4 of Table 7, read-out: Approximate Measured Solubility) of 130 µg/mL (≈ 476 µM). The solubility at 2 h (binary solvent mixture (main solvent and co-solvent), solvent system E5 of Table 7, read-out: Approximate Measured Solubility) was 20 µg/mL (≈ 73.2 µM) and the solubility at 2 h (binary solvent mixture (main solvent and co-solvent), solvent system E7 of Table 7, read-out: Approximate Measured Solubility) was 20 µg/mL (≈ 73.2 µM).
